Measurements from the supplement of paper PMC5908809.

Key:
[1] = system: normal NK cells expanded with K562-aAPC; assay: drug sensitivity score (DSS) (DSS units); higher = more sensitive; extreme values may be limits of the assay; settings: 72 h; IL-2 2.5 ng/mL
Method: (§1)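 Drug sensitivity and resistance testing on K562-aAPC-expanded normal NK cells: 5 concentrations (10-fold steps over a 10,000-fold range), 72 h at 37 °C, viability by CellTiter-Glo normalised to DMSO and benzethonium chloride controls; DSS from the fitted curve.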

[2] = system: normal primary NK cells, pool 3 (3 donors) (IL-2 2.5 ng/mL); assay: as above; settings: 72 h
KAI3 (IL-2 2.5 ng/mL) [3] = assay: as above; settings: 72 h
[4] = system: normal primary NK cells, pool 1 (3 donors) (IL-2 2.5 ng/mL); assay: as above; settings: 72 h
SNK-6 (IL-2 2.5 ng/mL) [5] = assay: as above; settings: 72 h
KHYG-1 (IL-2 2.5 ng/mL) [6] = assay: as above; settings: 72 h
[7] = system: normal primary NK cells, pool 2 (3 donors) (IL-2 2.5 ng/mL); assay: as above; settings: 72 h
NK-92 (IL-2 2.5 ng/mL) [8] = assay: as above; settings: 72 h
YT (IL-2 2.5 ng/mL) [9] = assay: as above; settings: 72 h
DERL-7 (IL-2 2.5 ng/mL) [10] = assay: as above; settings: 72 h
[11] = system: normal primary NK cells, pool 1 (3 donors), resting (IL-2 0 ng/mL); assay: as above; settings: 72 h
NKL (IL-2 2.5 ng/mL) [12] = assay: as above; settings: 72 h
NK-YS (IL-2 2.5 ng/mL) [13] = assay: as above; settings: 72 h
IMC-1 (IL-2 20 ng/mL) [14] = assay: as above; settings: 72 h
[15] = system: normal NK cells expanded with K562-aAPC; assay: percent inhibition of viability; higher = more inhibition; settings: 72 h, IL-2 2.5 ng/mL
Method: as §1

[16] = system: normal primary NK cells, pool 3 (3 donors) (IL-2 2.5 ng/mL); assay: as above; settings: 72 h
KAI3 (IL-2 2.5 ng/mL) [17] = assay: as above; settings: 72 h
[18] = system: normal primary NK cells, pool 1 (3 donors) (IL-2 2.5 ng/mL); assay: as above; settings: 72 h
SNK-6 (IL-2 2.5 ng/mL) [19] = assay: as above; settings: 72 h
KHYG-1 (IL-2 2.5 ng/mL) [20] = assay: as above; settings: 72 h
[21] = system: normal primary NK cells, pool 2 (3 donors) (IL-2 2.5 ng/mL); assay: as above; settings: 72 h
NK-92 (IL-2 2.5 ng/mL) [22] = assay: as above; settings: 72 h
YT (IL-2 2.5 ng/mL) [23] = assay: as above; settings: 72 h
DERL-7 (IL-2 2.5 ng/mL) [24] = assay: as above; settings: 72 h
[25] = system: normal primary NK cells, pool 1 (3 donors), resting (IL-2 0 ng/mL); assay: as above; settings: 72 h
NKL (IL-2 2.5 ng/mL) [26] = assay: as above; settings: 72 h
NK-YS (IL-2 2.5 ng/mL) [27] = assay: as above; settings: 72 h
IMC-1 (IL-2 20 ng/mL) [28] = assay: as above; settings: 72 h

O=c1ncn2nc(Sc3ccc(F)cc3F)ccc2c1-c1c(Cl)cccc1Cl [VX 745] (max concentration tested 10000 nM)
Settings	drug sensitivity score
DERL-7 (IL-2 2.5 ng/mL) [10]	0.75
IMC-1 (IL-2 20 ng/mL) [14]	1.58
KAI3 (IL-2 2.5 ng/mL) [3]	6.91
KHYG-1 (IL-2 2.5 ng/mL) [6]	1.17
NK-92 (IL-2 2.5 ng/mL) [8]	3.48
NK-YS (IL-2 2.5 ng/mL) [13]	4.52
NKL (IL-2 2.5 ng/mL) [12]	7.53
SNK-6 (IL-2 2.5 ng/mL) [5]	1.52
YT (IL-2 2.5 ng/mL) [9]	2.49
[1]	0.12
[2]	0.07
[4]	1.96
[7]	0.67
[11]	5.57

percent inhibition of viability [%]
Settings	1 nM	10 nM	100 nM	1000 nM	10000 nM
DERL-7 (IL-2 2.5 ng/mL) [24]	0.51	2.58	3.17	-1.44	23.6
IMC-1 (IL-2 20 ng/mL) [28]	-8.82	-3.76	-6.12	4.33	24.7
KAI3 (IL-2 2.5 ng/mL) [17]	3.09	5.9	15.3	25.4	59.7
KHYG-1 (IL-2 2.5 ng/mL) [20]	-5.86	-3.96	-4.73	1.64	25
NK-92 (IL-2 2.5 ng/mL) [22]	-11.3	-20.3	-9.85	11	37.8
NK-YS (IL-2 2.5 ng/mL) [27]	-7.93	-3.47	3.09	15.2	47.7
NKL (IL-2 2.5 ng/mL) [26]	-15.3	-9.23	3.92	36	58.3
SNK-6 (IL-2 2.5 ng/mL) [19]	-5.31	-15.8	-5.14	3.14	26.2
YT (IL-2 2.5 ng/mL) [23]	-3.02	-3.06	-2.2	8.23	29.8
[15]	-6.57	-6.69	-2.69	10.6	7.59
[16]	-1.25	-5.79	8.52	-4.71	13.8
[18]	1.17	8.88	0.28	10.7	23.3
[21]	-5.75	-3.08	5.63	1.25	19.1
[25]	13.8	12.2	18.8	9.48	37.9

C[C@]12C=CC(=O)C=C1CC[C@@H]1[C@@H]2C(=O)C[C@@]2(C)[C@H]1CC[C@]2(O)C(=O)CO [Prednisone] (max concentration tested 10000 nM)
Settings	drug sensitivity score
DERL-7 (IL-2 2.5 ng/mL) [10]	0
IMC-1 (IL-2 20 ng/mL) [14]	0.5
KAI3 (IL-2 2.5 ng/mL) [3]	0.51
KHYG-1 (IL-2 2.5 ng/mL) [6]	0.05
NK-92 (IL-2 2.5 ng/mL) [8]	0.06
NK-YS (IL-2 2.5 ng/mL) [13]	0.36
NKL (IL-2 2.5 ng/mL) [12]	0.06
SNK-6 (IL-2 2.5 ng/mL) [5]	2.13
YT (IL-2 2.5 ng/mL) [9]	8.17
[1]	1.61
[2]	0
[4]	0
[7]	0
[11]	0.01

percent inhibition of viability [%]
Settings	1 nM	10 nM	100 nM	1000 nM	10000 nM
DERL-7 (IL-2 2.5 ng/mL) [24]	-1.82	-3.2	-10.6	1.18	-9
IMC-1 (IL-2 20 ng/mL) [28]	0.28	-0.37	3.06	4.05	15.4
KAI3 (IL-2 2.5 ng/mL) [17]	-0.89	-0.49	8.97	-3.86	21.4
KHYG-1 (IL-2 2.5 ng/mL) [20]	-2.3	-2.14	4.01	1.48	11.2
NK-92 (IL-2 2.5 ng/mL) [22]	-5.87	-0.1	11.4	-3.86	13.6
NK-YS (IL-2 2.5 ng/mL) [27]	1.7	1.75	7.19	1.77	14.5
NKL (IL-2 2.5 ng/mL) [26]	-9.04	4.61	-4.53	4.17	10.7
SNK-6 (IL-2 2.5 ng/mL) [19]	-5.48	15	3.96	19.8	15
YT (IL-2 2.5 ng/mL) [23]	1.47	5.85	29.5	18.9	32.6
[15]	-4.43	-1.43	-0.64	6.95	22
[16]	-8.77	-7.64	-1.51	-4.94	0.45
[18]	4.02	-6.96	4.16	-9.18	9.23
[21]	-7.97	-0.38	-4.79	-8.7	-1.49
[25]	11.6	-5.07	6.95	-4.28	11.9
